Measured values from EPA's ToxValDB 9.5 (doi:10.2903/j.efsa.2009.179r).

Assays:
Apis mellifera = conditions: acute; duration: 48 hours; dermal; mortality
Canidae = conditions: Dog Other, clinical signs
Daphnia magna = conditions: chronic/long-term; duration: 21 days; reproduction
Oryctolagus sp. = conditions: acute; oral; mortality
Rattus norvegicus = conditions: reproduction developmental
Aphidius rhopalosiphi = assay: LR50; higher = less toxic; conditions: not reported; mortality

Structure (SMILES): C[N+](C)(C)CCCl.[Cl-] [Chlormequat chloride]
- LD50 (Apis mellifera): > 65.2 µg/piece
- NOAEL (Canidae; chronic, duration: 1 years, oral): 4 mg/kg-day
- NOAEL (Canidae; short-term, duration: 4 weeks): 9 mg/kg-day
- LC50 (Coturnix japonica; acute, oral, diet, mortality): > 310 mg/kg-day
- LD50 (Coturnix japonica; acute, oral, mortality): 441 mg/kg-day
- NOEC (Coturnix japonica; reproduction developmental): 54.8 mg/kg-day
- NOEC (Daphnia magna): 2.4 mg/L
- LC50 (Oncorhynchus mykiss; acute, duration: 96 hours, mortality): > 100 µg/mL
- NOEC (Oncorhynchus mykiss; chronic/long-term, duration: 21 days, growth): 43.1 mg/L
- LD50 (Oryctolagus sp.): 115 mg/kg-day
- NOAEL (Rattus norvegicus; body weight): 41 mg/kg-day
- NOAEL (Rattus norvegicus; reproduction): 74 mg/kg-day
- LC50 (Tagia sp.; acute, duration: 14 days, mortality): 320 mg/kg
- NOEC (Tagia sp.; chronic/long-term, duration: 56 days): 680 mg/kg
- LR50 (Aphidius rhopalosiphi): > 2200 g/ha
